Common to all, as to format: cell-based, human
Assay [1] has as its system IL-15 expression in endometrial stromal cells. The experiment in a line: Effect of ovarian steroids on IL-15 expression in endometrial stromal cells (quantitative RT-PCR, ELISA). The conditions noted are these: for IL-15 expression, mRNA and protein level (summary statement): endometrial stromal cells; for IL-15 expression: stromal cells, various time points. Here is the method: (§1) Cells. Uterine tissue was collected and endometrial stromal cells and their culture conditions were isolated as described previously. Tang et al., Endocrinology 135:450, 1994. The isolated glandular epithelial and stromal cells were grown as monolayers in DMEM-Ham's F-12 (1:1, v/v) supplemented with 10% fetal bovine serum (FBS). Their purity and homogeneity were determined immunocytochemically by the use of monoclonal antibodies to human desmin, smooth muscle α-actin, cytokeratin 19 and vimentin. Ovarian Steroids. To determine the effect of ovarian steroids regulate IL-13 and IL-15 expression in endometrial epithelial and stromal cells, cells were subcultured in 6-well dishes at an approximate density of at 10^6 cells/well, and incubated with phenol-free media containing 10% charcoal-stripped FBS for 48 hrs. The cells were made quiescent under a serum-free condition for 24 hrs, and then treated with E2 (17 β estradiol), MPA (medroxyprogesterone acetate) or E2+MPA either alone or in appropriate combinations, added to phenol-free medium containing 2% charcoal-stripped FBS (cFBS) (Hyclone, Logan, Utah). The level of IL-13 and IL-15 mRNA and protein was determined as described above after appropratie time intervals using quantitative RT-PCR and ELISA.
A general note: An ELISA detects its analyte on a solid surface through an enzyme-linked reagent.

Assay [2] relates to endometrial epithelial cells. Description: 3H-thymidine incorporation and cell proliferation (MTT) assay, epithelial cells. The method, then:
(§2) Cells. Uterine tissue was collected and endometrial stromal cells and their culture conditions were isolated as described previously. Tang et al., Endocrinology 135:450, 1994. The isolated glandular epithelial and stromal cells were grown as monolayers in DMEM-Ham's F-12 (1:1, v/v) supplemented with 10% fetal bovine serum (FBS). Their purity and homogeneity were determined immunocytochemically by the use of monoclonal antibodies to human desmin, smooth muscle α-actin, cytokeratin 19 and vimentin.
(§3) ^3H-Thymidine Incorporation and Cell Proliferation Assay. Endometrial epithelial and stromal cells were cultured either in 24- or 96-well dishes at approximate density of 2.5×10^5 and 2.5×10^4 cell/well, respectively, in the presence of 10% FBS for 48 h, they were then made quiescent in serum-free condition for 48 h as previously described. Tang et al., supra. The quiescent cells were incubated either in serum-free, or 2% FBS supplemented media, in the presence of appropriate concentrations of IL-13 and/or IL-15 and 2 μCi/ml ^3H-thymidine for 48 h. The rate of incorporated ^3H-thymidine determined as previously described. Tang et al., supra. Cell proliferation assays were preformed by seeding epithelial and stromal cells in 96-well microplates or 24 well dishes, respectively, as described above and cultured in the presence of appropriate concentrations of IL-13 and IL-15 in the presence or absence of 2% FBS. After 48 h the cells were washed and incubated with a dye solution composed of 3-(4,5-dimethylthiazol-2-yl)-2,5-diphenyltetrazolium bromide (MTT) for 4 h at 37° C., solubilized using Promega Cell-Titer assay, and the optical density was measured using Thermomax microplate reader (Molecular Devices) at 570 nm as previously described (Tang et al., supra).
Background: Dividing cells build labelled thymidine or BrdU into new DNA.

Assay [3] relates to IL-13 expression in endometrial stromal cells. Description: Effect of ovarian steroids on IL-13 expression in endometrial stromal cells (quantitative RT-PCR, ELISA). The conditions noted are these: for IL-13 expression, mRNA and protein level (summary statement): endometrial stromal cells; for IL-13 expression compared to control cells: stromal cells, various time points (e.g. 4, 6, 24 and 36 h after steroid addition). The method, then:
as §1

The test system of assay [4] is IL-15 expression in endometrial epithelial cells. The experiment in a line: Effect of ovarian steroids on IL-15 expression in endometrial epithelial cells (quantitative RT-PCR, ELISA). The conditions noted are these: for IL-15 expression, mRNA and protein level (summary statement): endometrial epithelial cells; for IL-15 expression: epithelial cells, various time points. Here is the method:
as §1

Assay [5] concerns endometrial stromal cells. The experiment in a line: 3H-thymidine incorporation and cell proliferation (MTT) assay, stromal cells. The method, then:
as §2, §3

The subject of assay [6] is IL-13 expression in endometrial epithelial cells. The experiment in a line: Effect of ovarian steroids on IL-13 expression in endometrial epithelial cells (quantitative RT-PCR, ELISA). Conditions: for IL-13 expression, mRNA and protein level (summary statement): endometrial epithelial cells; for IL-13 expression compared to control cells: epithelial cells. The method, then:
as §1

Assay [7] relates to TNFα receptor type I expression in epithelial cells. The experiment in a line: Effect of IL-13 and IL-15 on TNFα receptor type I expression in epithelial cells. Here is the method:
as §2
(§4) To determine whether IL-13 and IL-15 alter the expression of tumor necrosis factor alpha receptor, the stromal and epitheleal cells (isolated as described in Example3) were cultured, made quiescent, and then treated with IL-13 and IL-15 at appropriate concentration added to medium containing 2% cFBS. After specific time intervals the culture condition media were collected and assay for TNF-α receptor type I as previously described (Faber et al., Obstet Gynecol 98:668–673, 2001; Chegini et al., J Soc Gynecol Invest 6. 154–157, 1999) using ELISA and comparison to known concentrations of standard (R & D system).

For assay [8], the system named is TNFα receptor type I expression in stromal cells. Description: Effect of IL-13 and IL-15 on TNFα receptor type I expression in stromal cells. Here is the method:
as §2, §4

In the case of `C[C@]12CC[C@@H]3c4ccc(O)cc4CC[C@H]3[C@@H]1CC[C@@H]2O` [E2, 17 β estradiol], the “IL-15 expression, mRNA and protein level (summary statement)” value in assay [1] and in assay [4] was “modulate” each time. Further, the IL-15 expression result in assay [1] and in assay [4] was “statistically significant increase” throughout. Also, the “3H-thymidine incorporation compared to control cells” value in assay [2] and in assay [5] was “modulated” throughout. Further, the “cell proliferation compared to control cells” value in assay [2] and in assay [5] was “modulated” each time. Also, the “IL-13 expression, mRNA and protein level (summary statement)” value in assay [3] and in assay [6] was “modulate” throughout. Besides, the “IL-13 expression compared to control cells” value is “statistically significant increase” in assay [3]; “statistically significant increase” in assay [6] (24 and 36 h).

As for `CC(=O)O[C@]1(C(C)=O)CC[C@H]2[C@@H]3C[C@H](C)C4=CC(=O)CC[C@]4(C)[C@H]3CC[C@@]21C` [MPA, medroxyprogesterone acetate], the “IL-15 expression, mRNA and protein level (summary statement)” value in assay [1] and in assay [4] was “modulate” throughout. The IL-15 expression entry in assay [1] and in assay [4] was “statistically significant increase” each time. In addition, the “3H-thymidine incorporation compared to control cells” value in assay [2] and in assay [5] was “modulated” in each case. Moreover, the “cell proliferation compared to control cells” value in assay [2] and in assay [5] was “modulated” in each case. Moreover, the “IL-13 expression, mRNA and protein level (summary statement)” value in assay [3] and in assay [6] was “modulate” each time. For the same molecule, the “IL-13 expression compared to control cells” value is “statistically significant increase” in assay [3]; “statistically significant increase” in assay [6] (24 and 36 h); “statistically significant increase” in assay [6] (6 h).

Take “IL-13: cytokine interleukin-13 added to stromal and epithelial cell cultures”: the “TNFα receptor type I mRNA production” value in assay [7] (2, 4 and 6 h) is on record as “increased”. The “TNFα receptor type I protein expression” value in assay [7] (36 h) was “statistically significant increase”; in assay [8] (24 and 36 h) it was “statistically significant increase”.

Turning to “IL-15: cytokine interleukin-15 added to stromal and epithelial cell cultures”, in assay [8] (6 h), the “TNFα receptor type I mRNA expression compared to control cells” value is “marked increase”. Moreover, the “TNFα receptor type I protein expression” value in assay [8] (36 h) is recorded as “statistically significant increase”.
